Test results: US20260199350A1, “FLAVONES, QUINOLINONES, QUINAZOLINONES, AND AURONES, AND USES IN CK2-MEDIATED DISEASES” (Salk Institute for Biological Studies, priority 2022, published 2026)
Where two headings read alike, the source gives them in different places.

Assays:
CK2A1 = target: T1, CK2A1 (Homo sapiens, UniProt P68400); assay: Radiometric kinase assay (Eurofins), CK2A1; assay type: biochemical; conditions: read-out: CK2A1 RAD IC50
T1 construct: purchased Eurofins
Text: FIGS. 4A-4F characterize flavones for in vitro and in-cell CK2 inhibition. […] Representative of two independent experiments. […] Nonlinear fit was used to calculate IC50. […] Nonlinear fit was used to calculate IC50. […] Nonlinear fit was used to calculate IC50. […] Normalized to DMSO, data are representative of three independent experiments.
(§1) • ^1Radiometric kinase assay from Eurofins. Performed in astrocytes with a Promega Lumit IL-6 kit.

CK2A2 = target: T2, CK2A2 (Homo sapiens, UniProt P19784); assay: Radiometric kinase assay (Eurofins), CK2A2; assay type: biochemical; conditions: read-out: CK2A2 RAD IC50
T2 construct: purchased Eurofins
Text: as §1

IL-6 secretion = IL-6 secretion assay in astrocytes (Promega Lumit IL-6 kit); assay type: cell-based, human; conditions: Homo sapiens, Astrocyte; Table 2; astrocytes; read-out: IL6-Inhib.
Method: IL-6 secretion assay. HCAs were plated at 20,000 cells per well in white clear bottom 96-well plates. Two to three days later, media was removed and replaced with media containing 10 ng/mL IL1B and compound dilution series. Five hours later, plates were processed using the Lumit IL-6 Assay Kit (Promega W6030) according to the manufacturer's instructions.
• ^1Radiometric kinase assay from Eurofins. Performed in astrocytes with a Promega Lumit IL-6 kit. A series of halogenated flavones was generated and assayed (Table 3).

T2 sequence (P19784 whole entry): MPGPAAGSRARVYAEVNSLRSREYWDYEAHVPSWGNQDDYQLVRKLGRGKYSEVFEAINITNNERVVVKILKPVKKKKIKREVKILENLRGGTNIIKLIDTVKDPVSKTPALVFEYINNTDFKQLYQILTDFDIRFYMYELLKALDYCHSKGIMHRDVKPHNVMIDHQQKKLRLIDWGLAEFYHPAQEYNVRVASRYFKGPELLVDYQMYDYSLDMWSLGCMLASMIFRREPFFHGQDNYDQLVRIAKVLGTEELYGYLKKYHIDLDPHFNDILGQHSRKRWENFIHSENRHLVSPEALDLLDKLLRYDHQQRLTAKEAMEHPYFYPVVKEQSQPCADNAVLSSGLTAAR
T1 sequence (P68400 whole entry): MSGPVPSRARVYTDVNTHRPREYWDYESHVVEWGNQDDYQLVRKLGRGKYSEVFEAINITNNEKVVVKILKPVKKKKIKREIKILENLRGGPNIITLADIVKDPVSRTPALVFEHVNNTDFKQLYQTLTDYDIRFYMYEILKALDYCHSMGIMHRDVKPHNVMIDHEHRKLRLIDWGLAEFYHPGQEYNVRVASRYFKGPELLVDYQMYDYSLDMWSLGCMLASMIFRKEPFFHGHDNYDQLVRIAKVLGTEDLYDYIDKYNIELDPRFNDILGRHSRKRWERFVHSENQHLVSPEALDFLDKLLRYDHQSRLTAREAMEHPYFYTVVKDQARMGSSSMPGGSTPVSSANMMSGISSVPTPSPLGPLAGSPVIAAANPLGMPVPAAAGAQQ

| IC50 (CK2A1; Table 12) | IC50 (CK2A2; Table 12) | IC50 (CK2A1; Table 8, quinazolinones) | IC50 (CK2A2; Table 8, quinazolinones) | Compound | other results |
| --- | --- | --- | --- | --- | --- |
| 465 nM | 144 nM | – | – | COc1ccc2c(c1Br)O/C(=C\c1ccc(O)c(OC)n1)C2=O [Compound 1188A] | – |
| 117 nM | 149 nM | – | – | COc1cc(/C=C2\Oc3c(ccc(OC)c3Br)C2=O)ncc1O [Compound 1189A] | – |
| 184 nM | 46 nM | – | – | COc1ccc2c(c1Br)O/C(=C\c1cc(Br)c(O)cn1)C2=O [Compound 1190B] | – |
| 703 nM | 60 nM | – | – | O=C(O)c1ccc(/C=C2\Oc3c(Br)cccc3C2=O)cc1 [Compound 1210A] | – |
| > 5000 nM | 1260 nM | – | – | C#Cc1cc(-c2cc(=O)c3cc(Br)c(OC)c(Br)c3o2)ccc1O [Compound 1212A] | – |
| 4450 nM | > 5000 nM | – | – | O=C1/C(=C/c2ccc(O)c(C3CC3)c2)Oc2c(Br)cccc21 [Compound 1220A] | – |
| 177 nM | 77 nM | – | – | C#Cc1cc(/C=C2\Oc3c(Br)cc(Br)cc3C2=O)ccc1O [Compound 1224A] | – |
| 131 nM | 91 nM | – | – | COc1nc(/C=C2\Oc3c(Br)cccc3C2=O)ccc1O [Compound 1226A] | – |
| 151 nM | 49 nM | – | – | C#Cc1cc(/C=C2\Oc3c(cc(Br)c(OC)c3Br)C2=O)ccc1O [Compound 1229A] | – |
| 180 nM | 206 nM | – | – | C#Cc1cc(/C=C2\Oc3c(ccc(OC)c3Br)C2=O)ccc1O [Compound 1231A] | – |
| 172 nM | 141 nM | – | – | COc1cc(/C=C2\Oc3c(Br)cccc3C2=O)ncc1O [Compound 1236B] | – |
| 67 nM | 57 nM | – | – | O=C1/C(=C/c2cc(Br)c(O)cn2)Oc2c(Br)cccc21 [Compound 1237A] | – |
| – | – | – | – | COc1cc(-c2cc(=O)c3cc(Br)cc(Br)c3o2)ncc1O [JKT.77A] | IC50 (IL-6 secretion): 6.7 µM; IC50 (CK2A1; Table 2): 21 nM; IC50 (CK2A2; Table 2): 19 nM |
| – | – | – | – | O=c1cc(-c2ccc(O)c(C(F)(F)F)c2)oc2c(Br)cc(Br)cc12 [JKT.460A] | IC50 (IL-6 secretion): 3 µM; IC50 (CK2A1; Table 2): 609 nM; IC50 (CK2A2; Table 2): 129 nM |
| – | – | – | – | O=c1cc(-c2cc(F)c(O)c(F)c2)oc2c(Br)cc(Br)cc12 [JKT.461B] | IC50 (IL-6 secretion): > 10 µM; IC50 (CK2A1; Table 2): 76 nM; IC50 (CK2A2; Table 2): 32 nM |
| – | – | 4590 nM | > 5000 nM | Cn1c(-c2ccc(O)c(Br)c2)nc2c(Br)cccc2c1=O [JKT.866A] | – |

| IC50 (CK2A1; Table 12) | IC50 (CK2A2; Table 12) | IC50 (CK2A1; Table 8, quinazolinones) | IC50 (CK2A2; Table 8, quinazolinones) | Compound | other results |
| --- | --- | --- | --- | --- | --- |
| – | – | > 5000 nM | > 5000 nM | Cn1c(-c2ccc(O)c(Cl)c2)nc2c(Br)cccc2c1=O [JKT.870A] | – |
| – | – | 566 nM | 649 nM | Cn1c(-c2cc(F)c(O)c(F)c2)nc2c(Br)cccc2c1=O [JKT.873A] | – |
| – | – | > 5000 nM | > 5000 nM | Cn1c(-c2ccc(O)c(C(F)(F)F)c2)nc2c(Br)cc(Br)cc2c1=O [JKT.874D] | – |
| – | – | > 5000 nM | > 5000 nM | Cn1c(-c2ccc(O)c(C(F)(F)F)c2)nc2c(Br)cccc2c1=O [JKT.875A] | – |
| – | – | > 5000 nM | > 5000 nM | COc1cc(-c2nc3c(Br)cc(Br)cc3c(=O)n2C)ccc1O [JKT.876A] | – |
| – | – | > 5000 nM | > 5000 nM | COc1cc(-c2nc3c(Br)cccc3c(=O)n2C)ccc1O [JKT.877A] | – |
| – | – | 95 nM | 242 nM | O=c1[nH]c(-c2ccc(O)c(Br)c2)nc2c(Br)nc(Br)cc12 [JKT.880B] | – |
| – | – | – | – | O=c1cc(-c2ccc(O)c(Br)c2)oc2c(Br)nc(Br)cc12 [JKT.909A] | IC50 (CK2A1; Table 4): 6 nM; IC50 (CK2A2; Table 4): 6 nM |
| – | – | – | – | O=c1cc(-c2cc(Br)c(O)cn2)oc2c(Br)cc(Br)cc12 [JKT.923A] | IC50 (CK2A1; Table 4): 11 nM; IC50 (CK2A2; Table 4): 8 nM |
| – | – | 107 nM | 99 nM | O=c1[nH]c(-c2cc(Br)c(O)cn2)nc2c(Br)cc(Br)cc12 [JKT.932F] | – |
| – | – | – | – | O=c1cc(-c2ccc(O)c(Br)c2)[nH]c2c(Br)cc(Br)cc12 [JKT.944A] | IC50 (CK2A1; Table 6, quinolinones): 128 nM; IC50 (CK2A2; Table 6, quinolinones): 123 nM |
| – | – | 132 nM | 105 nM | O=c1[nH]c(-c2ccc(O)c(Cl)n2)nc2c(Br)cc(Br)cc12 [JKT.956A] | – |
| – | – | 27 nM | 33 nM | COc1nc(-c2nc3c(Br)cc(Br)cc3c(=O)[nH]2)ccc1O [JKT.968C] | – |
| – | – | 26 nM | 33 nM | COc1nc(-c2nc3c(Br)cccc3c(=O)[nH]2)ccc1O [JKT.975A] | – |
| – | – | – | – | O=c1cc(-c2cc(Br)c(O)cn2)oc2c(Br)cccc12 [JKT.980A] | IC50 (CK2A1; Table 4): 53 nM; IC50 (CK2A2; Table 4): 55 nM |
| – | – | 677 nM | 900 nM | COc1nc(-c2nc3c(Br)cc(Br)cc3c(=O)n2C)ccc1O [JKT.983A] | – |
